Results reported in patent US8841456B2, “1,5-naphthyridine derivative or salt thereof” (FUJIFILM Corporation, priority 2011, dated 2014).
pIC50: −log10 of the molar value. Read-outs that look alike come from different tables or passages of the source.

Tests used:
[1] = target: T1, human PI3Kα protein (Homo sapiens, UniProt P42336); assay: PI3Kα enzyme assay (ADP-Glo kinase assay); assay type: biochemical; details: 3 nM PI3Kα, 50 μM PIP2, 100 μM ATP
T1 construct: purchased Carna Biosciences, Inc; host or cells: Baculovirus expression system
T1 sequence (P42336 whole entry): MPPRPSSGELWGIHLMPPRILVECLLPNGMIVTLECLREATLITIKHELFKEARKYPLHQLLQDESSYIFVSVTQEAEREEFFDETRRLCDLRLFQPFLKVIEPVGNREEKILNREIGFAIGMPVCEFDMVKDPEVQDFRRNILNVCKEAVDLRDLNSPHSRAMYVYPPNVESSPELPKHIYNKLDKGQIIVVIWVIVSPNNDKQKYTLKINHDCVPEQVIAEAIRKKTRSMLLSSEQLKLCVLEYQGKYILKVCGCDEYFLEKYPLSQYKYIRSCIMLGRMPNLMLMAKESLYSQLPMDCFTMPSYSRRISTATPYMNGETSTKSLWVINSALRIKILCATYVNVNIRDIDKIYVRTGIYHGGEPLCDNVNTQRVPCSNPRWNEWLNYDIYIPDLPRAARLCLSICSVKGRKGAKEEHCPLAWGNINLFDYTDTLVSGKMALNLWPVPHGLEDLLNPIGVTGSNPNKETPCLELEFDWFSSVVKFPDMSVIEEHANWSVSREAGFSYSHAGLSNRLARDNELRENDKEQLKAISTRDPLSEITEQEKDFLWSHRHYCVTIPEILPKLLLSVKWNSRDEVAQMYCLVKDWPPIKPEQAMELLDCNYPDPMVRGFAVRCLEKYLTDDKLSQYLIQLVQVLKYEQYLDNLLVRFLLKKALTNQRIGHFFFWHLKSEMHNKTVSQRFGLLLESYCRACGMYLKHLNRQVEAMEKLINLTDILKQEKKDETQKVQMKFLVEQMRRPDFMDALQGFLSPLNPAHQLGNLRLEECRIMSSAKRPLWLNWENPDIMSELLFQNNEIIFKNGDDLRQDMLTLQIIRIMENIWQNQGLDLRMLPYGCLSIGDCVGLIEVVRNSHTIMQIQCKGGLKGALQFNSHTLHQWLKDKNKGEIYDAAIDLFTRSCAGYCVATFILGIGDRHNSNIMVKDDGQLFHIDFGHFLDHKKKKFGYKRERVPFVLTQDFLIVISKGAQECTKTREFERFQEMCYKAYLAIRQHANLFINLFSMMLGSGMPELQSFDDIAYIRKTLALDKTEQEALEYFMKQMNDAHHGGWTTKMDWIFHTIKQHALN
T1 sequence (P27986 whole entry partner): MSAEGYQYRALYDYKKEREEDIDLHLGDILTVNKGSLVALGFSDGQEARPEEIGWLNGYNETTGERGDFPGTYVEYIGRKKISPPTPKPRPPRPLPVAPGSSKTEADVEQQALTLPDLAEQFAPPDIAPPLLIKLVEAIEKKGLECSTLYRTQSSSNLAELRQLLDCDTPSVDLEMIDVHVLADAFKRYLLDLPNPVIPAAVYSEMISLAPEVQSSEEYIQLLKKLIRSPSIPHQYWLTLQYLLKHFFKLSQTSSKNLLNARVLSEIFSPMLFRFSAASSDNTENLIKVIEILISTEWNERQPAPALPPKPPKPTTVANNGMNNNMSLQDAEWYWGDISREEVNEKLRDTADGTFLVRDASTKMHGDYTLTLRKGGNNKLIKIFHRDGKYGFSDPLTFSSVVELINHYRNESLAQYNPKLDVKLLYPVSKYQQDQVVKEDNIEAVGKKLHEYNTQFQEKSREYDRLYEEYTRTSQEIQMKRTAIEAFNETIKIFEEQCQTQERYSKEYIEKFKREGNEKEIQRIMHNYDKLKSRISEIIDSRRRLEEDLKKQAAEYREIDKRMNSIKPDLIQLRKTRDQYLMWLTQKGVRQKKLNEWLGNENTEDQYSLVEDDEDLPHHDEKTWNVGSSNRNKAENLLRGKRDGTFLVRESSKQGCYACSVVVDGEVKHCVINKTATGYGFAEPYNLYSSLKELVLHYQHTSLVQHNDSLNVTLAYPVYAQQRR
Method: Evaluation of the PI3Kα inhibitory activity of the compound of the present invention was carried out according to the method as described below.
For the PI3Kα enzyme assay, biotinylated product of a human PI3Kα protein produced using a Baculovirus expression system (Carna Biosciences, Inc.) was used. Further, for the detection of the enzyme activity, an ADP-Glo kinase assay (PROMEGA Corporation) was used.
10 μL of a reaction solution (3 nM PI3Kα, 40 mM Tris-HCl, 20 mM MgCl2, 0.1% BSA, pH 7.5) including the human PI3Kα protein and a test compound at a predetermined concentration was incubated at room temperature for 15 minutes. Thereafter, 5 μL of a mixed solution of L-α-Phosphatidylinositol 4,5-diphosphate (PIP2) (SIGMA-ALDLICH) which was a substrate and ATP(SIGMA-ALDLICH) was added thereto to a final concentration of 50 μM and 100 μM, respectively, and the reaction solution was further incubated at 25° C. for 60 minutes to carry out an enzyme reaction.
After the reaction, 15 μL of an ADP-Glo reagent (PROMEGA Corporation) was added and the resulting liquid was incubated at room temperature for 60 minutes, whereby the enzyme reaction was stopped. Thereafter, after further adding 30 μL of a Kinase Detection Reagent (PROMEGA Corporation) and standing the resulting solution at room temperature for 40 minutes, ADP produced by the enzyme reaction was quantified by luminescence intensity.
For the measurement of luminescence intensity, EnVision (PerkinElmer, Inc.) was used.
(§1) The inhibitory activity of the compounds was evaluated using an IC50 (50% inhibitory concentration). The IC50 was calculated using XLfit (IDBS).

[2] = target: T2, glutathione S-transferase (GST)-fusion human ERK2 protein (Homo sapiens, UniProt P28482); assay: ERK2 enzyme assay (LabChip mobility shift); assay type: biochemical; details: 2 nM ERK2, 4.25 μM FL-Peptide 8, 43 μM ATP
T2 construct: purchased Carna Biosciences, Inc; host or cells: E. coli expression system
T2 sequence (P28482 whole entry, the tested form may be a part): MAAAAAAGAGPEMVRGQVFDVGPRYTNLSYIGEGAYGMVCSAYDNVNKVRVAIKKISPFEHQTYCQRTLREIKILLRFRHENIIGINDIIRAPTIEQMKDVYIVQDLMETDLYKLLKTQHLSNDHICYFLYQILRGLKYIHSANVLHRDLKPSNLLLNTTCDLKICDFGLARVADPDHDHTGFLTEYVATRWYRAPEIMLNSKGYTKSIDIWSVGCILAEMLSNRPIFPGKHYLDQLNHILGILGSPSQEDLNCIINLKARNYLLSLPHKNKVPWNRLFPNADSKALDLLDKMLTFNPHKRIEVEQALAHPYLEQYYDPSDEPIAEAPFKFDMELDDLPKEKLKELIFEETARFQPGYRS
Method: Evaluation of the ERK2 inhibitory activity of the compound of the present invention was carried out according to the method as described below.
For the ERK2 enzyme assay, a glutathione S-transferase (GST)-fusion human ERK2 protein (Carna Biosciences, Inc.) produced using an E. coli expression system was used.
12 μL of the reaction solution (2 nM ERK2, 100 mM Hepes, 10 mM MgCl2, 1.5 mM DTT, 0.003% Brij35, pH 7.5) including the ERK2 protein and a test compound at a predetermined concentration was incubatedat room temperature for 15 minutes. Thereafter, 3 μL of a mixed solution of FL-Peptide 8 (5-FAM-IPTSPITTTYFFFKKK-COOH) (Caliper Lifescience) which was a substrate and ATP(SIGMA-ALDLICH) were added thereto to a final concentration of 4.25 μM and 43 μM, respectively. The reaction solution was further incubated at 25° C. for 120 minutes to carry out an enzyme reaction.
The enzyme reaction was stopped by adding 27 μL of a reaction-stopping solution (100 mM HEPES, 11.2 mM EDTA, 5.6% Brij35, pH 7.5) including a 0.5% Coating reagent 8 (PerkinElmer, Inc.) after the reaction. Thereafter, non-phosphorylated peptides and phosphorylated peptides were separated using LabChip Ez Reader (Caliper LifeScience, Inc.) to quantify the proportion of phosphorylated peptides.
as §1

[3] = IC50 class, read-out: PI3Kα Inhibitory Activity
[4] = IC50 class, read-out: ERK2 Inhibitory Activity

| pIC50 [1, 3] | pIC50 [2, 4] | pIC50 ([1]; read-out: PI3Kα, IC50) | pIC50 ([2]; read-out: ERK2, IC50) | Structure (SMILES) |
| --- | --- | --- | --- | --- |
| > 7.00 | > 7.00 |  |  | COc1cc(-c2cnc3ccc(NC(=O)NC4CCCC4)nc3c2)ccc1O [Compound 0001] |
| > 7.00 | > 7.00 | 7.08 | 7.38 | COc1ccc(-c2cnc3ccc(NC(=O)NC4CCCC4)nc3c2)cc1OC [Compound 0002] |
| > 7.00 | > 7.00 |  |  | Cn1cc(-c2cnc3ccc(NC(=O)NC4CCCC4)nc3c2)cn1 [Compound 0003] |
| > 7.00 | > 7.00 |  |  | O=C(Nc1ccc2ncc(-c3cnn(CCN4CCOCC4)c3)cc2n1)NC1CCCC1 [Compound 0004] |
| 6.00 to 7.00 | 6.00 to 7.00 |  |  | O=C(Nc1ccc2ncc(-c3cccnc3)cc2n1)NC1CCCC1 [Compound 0005] |
| 6.00 to 7.00 | 6.00 to 7.00 |  |  | O=C(Nc1ccc2ncc(-c3ccccc3)cc2n1)NC1CCCC1 [Compound 0006] |
| > 7.00 | > 7.00 |  |  | O=C(Nc1ccc2ncc(-c3ccncc3)cc2n1)NC1CCCC1 [Compound 0007] |
| > 7.00 | > 7.00 |  |  | O=C(Nc1ccc2ncc(N3CCOCC3)cc2n1)NC1CCCC1 [Compound 0008] |
| > 7.00 |  | > 8.52 | 5.91 | COc1cc(Nc2cnc3ccc(NC(=O)NC4CCCC4)nc3c2)cc(OC)c1OC [Compound 0009] |
| > 7.00 | 5.00 to 6.00 |  |  | COCCNc1cnc2ccc(NC(=O)NC3CCCC3)nc2c1 [Compound 0010] |
| 6.00 to 7.00 | 5.00 to 6.00 |  |  | CN(C)CCNc1cnc2ccc(NC(=O)NC3CCCC3)nc2c1 [Compound 0011] |
| 6.00 to 7.00 | 5.00 to 6.00 |  |  | CC(C)(C)OC(=O)N1CCN(c2cnc3ccc(NC(=O)NC4CCCC4)nc3c2)CC1 [Compound 0012] |
| 6.00 to 7.00 | 6.00 to 7.00 |  |  | O=C(Nc1ccc2ncc(N3CCNCC3)cc2n1)NC1CCCC1 [Compound 0013] |
| 6.00 to 7.00 | 6.00 to 7.00 |  |  | COc1cc(-c2cnc3ccc(NC(=O)NC4CCCC4)nc3c2)cnc1OC [Compound 0014] |
| > 7.00 | > 7.00 |  |  | COc1cc(-c2cnc3ccc(NC(=O)NC4CCCC4)nc3c2)cnc1O [Compound 0015] |
| > 7.00 | > 7.00 |  |  | CN(C)CCOc1cc(-c2cnc3ccc(NC(=O)NC4CCCC4)nc3c2)ccc1O [Compound 0016] |
| 6.00 to 7.00 | 5.00 to 6.00 |  |  | C#Cc1cnc2ccc(NC(=O)NC3CCCC3)nc2c1 [Compound 0017] |
| > 7.00 | 6.00 to 7.00 |  |  | CN(C)CCn1cc(-c2cnc3ccc(NC(=O)NC4CCCC4)nc3c2)cn1 [Compound 0018] |
| > 7.00 | > 7.00 |  |  | C=Cn1cc(-c2cnc3ccc(NC(=O)NC4CCCC4)nc3c2)cn1 [Compound 0019] |
| 6.00 to 7.00 | > 7.00 |  |  | O=C(Nc1ccc2ncc(-c3ccc(F)cc3)cc2n1)NC1CCCC1 [Compound 0020] |
| 6.00 to 7.00 | > 7.00 |  |  | COCCOc1cc(-c2cnc3ccc(NC(=O)NC4CCCC4)nc3c2)ccc1O [Compound 0021] |
| > 7.00 | > 7.00 |  |  | COc1cc(-c2cnc3ccc(NC(=O)NC4CCCC4)nc3c2)ccn1 [Compound 0022] |
| > 7.00 | 6.00 to 7.00 |  |  | O=C(Nc1ccc2ncc(-c3ccnc(O)c3)cc2n1)NC1CCCC1 [Compound 0023] |
| > 7.00 | 6.00 to 7.00 |  |  | O=C(Nc1ccc2ncc(-c3cnn(CCN4CCC4)c3)cc2n1)NC1CCCC1 [Compound 0024] |
| > 7.00 | 6.00 to 7.00 |  |  | CCN(CC)CCn1cc(-c2cnc3ccc(NC(=O)NC4CCCC4)nc3c2)cn1 [Compound 0025] |
| > 7.00 | 6.00 to 7.00 |  |  | COCCN(C)c1cnc2ccc(NC(=O)NC3CCCC3)nc2c1 [Compound 0026] |

| pIC50 [1, 3] | pIC50 [2, 4] | pIC50 ([1]; read-out: PI3Kα, IC50) | pIC50 ([2]; read-out: ERK2, IC50) | Structure (SMILES) |
| --- | --- | --- | --- | --- |
| 6.00 to 7.00 | 6.00 to 7.00 |  |  | CN1CCN(c2cnc3ccc(NC(=O)NC4CCCC4)nc3c2)CC1 [Compound 0027] |
| > 7.00 | < 5.00 |  |  | COc1ccc(Nc2cnc3ccc(NC(=O)NC4CCCC4)nc3c2)cc1 [Compound 0028] |
| > 7.00 | < 5.00 |  |  | COc1cccc(Nc2cnc3ccc(NC(=O)NC4CCCC4)nc3c2)c1 [Compound 0029] |
| > 7.00 | < 5.00 |  |  | COc1ccc(Nc2cnc3ccc(NC(=O)NC4CCCC4)nc3c2)cc1OC [Compound 0030] |
| > 7.00 | 5.00 to 6.00 |  |  | COc1cc(Nc2cnc3ccc(NC(=O)NC4CCCC4)nc3c2)cc(OC)c1 [Compound 0031] |
| > 7.00 | > 7.00 |  |  | COCCn1cc(-c2cnc3ccc(NC(=O)NC4CCCC4)nc3c2)cn1 [Compound 0032] |
| 6.00 to 7.00 | > 7.00 |  |  | O=C(Nc1ccc2ncc(-c3cccc(O)c3)cc2n1)NC1CCCC1 [Compound 0033] |
| > 7.00 | > 7.00 |  |  | O=C(Nc1ccc2ncc(-c3ccc(O)cc3)cc2n1)NC1CCCC1 [Compound 0034] |
| > 7.00 | > 7.00 |  |  | CS(=O)(=O)Nc1cccc(-c2cnc3ccc(NC(=O)NC4CCCC4)nc3c2)c1 [Compound 0035] |
| > 7.00 | > 7.00 |  |  | O=C(Nc1ccc2ncc(-c3cnn(CCN4CCCCC4)c3)cc2n1)NC1CCCC1 [Compound 0036] |
| > 7.00 | > 7.00 |  |  | COCCN(C)CCn1cc(-c2cnc3ccc(NC(=O)NC4CCCC4)nc3c2)cn1 [Compound 0037] |
| > 7.00 | > 7.00 |  |  | O=C(Nc1ccc2ncc(N3CC(O)C3)cc2n1)NC1CCCC1 [Compound 0038] |
| 6.00 to 7.00 | > 7.00 |  |  | O=C(Nc1ccc2ncc(-c3ccnc(F)c3)cc2n1)NC1CCCC1 [Compound 0039] |
| 5.00 to 6.00 | 6.00 to 7.00 |  |  | O=C(Nc1ccc2ncc(-c3ccccc3CO)cc2n1)NC1CCCC1 [Compound 0040] |
| 6.00 to 7.00 | > 7.00 |  |  | O=C(Nc1ccc2ncc(-c3ccc(CO)cc3)cc2n1)NC1CCCC1 [Compound 0042] |
| > 7.00 | > 7.00 | 7.96 | 8.15 | Cc1n[nH]cc1-c1cnc2ccc(NC(=O)NC3CCCC3)nc2c1 [Compound 0043] |
| > 7.00 | > 7.00 | 8.40 | 7.31 | O=C(Nc1ccc2ncc(-c3cnn(CCCN4CCOCC4)c3)cc2n1)NC1CCCC1 [Compound 0044] |
| > 7.00 | > 7.00 |  |  | CN(CCO)CCn1cc(-c2cnc3ccc(NC(=O)NC4CCCC4)nc3c2)cn1 [Compound 0045] |
| > 7.00 | 6.00 to 7.00 |  |  | COCCNCCn1cc(-c2cnc3ccc(NC(=O)NC4CCCC4)nc3c2)cn1 [Compound 0047] |
| > 7.00 | > 7.00 |  |  | COCCN(CCOC)CCn1cc(-c2cnc3ccc(NC(=O)NC4CCCC4)nc3c2)cn1 [Compound 0048] |
| > 7.00 | > 7.00 |  |  | Cc1n[nH]c(C)c1-c1cnc2ccc(NC(=O)NC3CCCC3)nc2c1 [Compound 0049] |
| 6.00 to 7.00 | 6.00 to 7.00 |  |  | Cc1noc(C)c1-c1cnc2ccc(NC(=O)NC3CCCC3)nc2c1 [Compound 0050] |
| > 7.00 | > 7.00 | 8.22 | 7.46 | O=C(Nc1ccc2ncc(-c3cnn(CCN4CCNCC4)c3)cc2n1)NC1CCCC1 [Compound 0051] |
| > 7.00 | > 7.00 |  |  | O=C1CN(CCn2cc(-c3cnc4ccc(NC(=O)NC5CCCC5)nc4c3)cn2)CCN1 [Compound 0052] |
| > 7.00 | > 7.00 |  |  | CC(C)NC(=O)Nc1ccc2ncc(-c3cn[nH]c3)cc2n1 [Compound 0053] |
